Assay results from patent publication US20170369928A1, “METHOD FOR EVALUATING DNA DAMAGE FROM ANALYTE” (SOGANG UNIVERSITY RESEARCH FOUNDATION, priority 2016, published 2017).

Experiments:
Escherichia coli [1] = experiment: single molecule DNA damage analysis (visualization of damaged lesions in genomic DNA of agarose-embedded cells); type: cell-based, Escherichia coli K-12 MG1655
Experimental: Escherichia coli K-12 MG1655 cells were grown in 5 mL LB broths in a shaking incubator (220 rpm) at 37° C. for six hours. Bacterial cells were harvested by centrifugation (10,000×g, 10 min) and washed twice with 0.85% NaCl solution and re-suspended in the same solution. The cell-suspension was then diluted such that OD600 was approximately between 0.5 and 1 and used for subsequent reactions.
Bacterial suspension (OD600=0.5) was mixed with 2% LGT agarose solution and then dispensed as 20 μL droplets on a surface and solidified in the refrigerator (4° C.) for 10 minutes. […] After incubation, all these plugs were washed in 0.85% NaCl solution for half an hour.
After alcohol treatment, bacteria embedded agarose plugs were subjected to lysis with proteinase K solution (50 units in 500 μL, Tris 10 mM and EDTA 1 mM, pH 8.0 (1×TE)) at 42° C. for 150 min. The plugs were then washed in 1 mL 1×TE overnight. For removing oxidized base adducts, agarose plugs were incubated with a mixture of 10 units Fpg, 10 units Nfo, and 20 units Nei in NEB buffer2 (50 mM NaCl, 10 mM Tris-HCl, 10 mM MgCl2, 1 mM DTT, pH 7.9) at 37° C. for one hour. After enzyme treatment, the plugs were washed twice with 1 mL 1×TE buffer for half-an-hour. The plugs were then incubated with 5 units DNA Polymerase I, 1 mM AlexaFluor-647 labeled dUTP and dNTP mix (1 mM dATP, 1 mM dGTP, 100 μM dCTP, 100 μM dTTP) in the polymerase reaction buffer (50 mM Tris-HCl, 1 mM DTT, 10 mM MgCl2, pH 7.5) at 37° C. for one hour to label gaps or nicks. […] After nick translation, the plugs were washed three times in 1 mL 1×TE buffer for one hour. Then agarose plugs were melted in 400 μL 1×TE buffer at 65° C. for 15 min and stained with 1 μM YOYO-1.
A PDMS device was mounted on the positively charged surface. Then, the solution of DNA molecules melted from low gelling temperature agarose plug was loaded onto the entrance of the microfluidic channels. While the solution moved through the microchannels by capillary action, DNA molecules were elongated and deposited on the positively charged surface.

Escherichia coli [2] = conditions: 30 minutes incubation in ethanol

Q: What does the source list for `CCO` [ethanol, Ethanol]?
A: number of DNA lesions corresponding to 17% ethanol (Escherichia coli [1]; 17% ethanol, 30 minutes, glycosylase mix): 16.4 lesions/genome; DNA length per one lesion at 17% ethanol (Escherichia coli [1]; 17% ethanol, 30 minutes, glycosylase mix, one lesion per ~300 kb): ~300 kb; increase in number of DNA lesions with every 1% increase in ethanol concentration (Escherichia coli [1]; E. coli embedded agarose plug, 30 minutes incubation, ethanol 5%-40%, glycosylase mix (Fpg, Nfo, Nei), linear fit r^2=0.98): 0.88 lesions/genome; labels per genome, ethanol incubation without glycosylase treatment (Escherichia coli [1]; without glycosylase treatment (triangles in FIG. 2A), 30 minutes incubation): 1.1-1.4 labels per genome; ethanol concentration above which bacterial cells could not survive (Escherichia coli [2]): above 17%
